This is an account of results in BindingDB's records for doi:10.1016/j.bmcl.2011.06.024 (Merck Research Laboratories, 2011).

The target in one test is T1, Smoothened homolog (Homo sapiens, UniProt Q99835). Briefly: Antagonist activity at smoothened expressed in mouse Shh Light2 cells co-expressing Gli-dependent reporter gene assessed as inhibition of Hh pathway.
T1 sequence (Q99835 whole entry): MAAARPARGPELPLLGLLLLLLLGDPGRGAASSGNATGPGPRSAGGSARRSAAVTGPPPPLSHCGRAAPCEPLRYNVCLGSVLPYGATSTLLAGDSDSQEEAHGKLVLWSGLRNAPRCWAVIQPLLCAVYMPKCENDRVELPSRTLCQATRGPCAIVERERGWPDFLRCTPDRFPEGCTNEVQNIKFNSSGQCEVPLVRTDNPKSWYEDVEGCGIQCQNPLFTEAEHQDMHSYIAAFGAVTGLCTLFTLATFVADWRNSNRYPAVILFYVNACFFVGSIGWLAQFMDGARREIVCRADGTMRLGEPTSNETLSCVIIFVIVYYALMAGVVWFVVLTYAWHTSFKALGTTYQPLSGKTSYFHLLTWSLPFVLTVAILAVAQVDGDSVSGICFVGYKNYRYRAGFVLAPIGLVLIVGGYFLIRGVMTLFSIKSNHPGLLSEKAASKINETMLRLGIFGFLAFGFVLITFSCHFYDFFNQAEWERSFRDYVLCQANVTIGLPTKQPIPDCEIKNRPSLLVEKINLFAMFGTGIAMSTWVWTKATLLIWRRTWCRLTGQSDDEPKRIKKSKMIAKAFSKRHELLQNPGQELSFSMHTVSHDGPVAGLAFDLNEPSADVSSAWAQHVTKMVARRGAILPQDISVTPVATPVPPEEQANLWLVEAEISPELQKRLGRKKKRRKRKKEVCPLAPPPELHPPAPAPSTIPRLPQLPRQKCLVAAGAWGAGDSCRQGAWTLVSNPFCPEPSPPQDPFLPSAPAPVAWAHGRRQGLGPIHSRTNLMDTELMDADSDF
In the case of `O=C(Nc1ccccc1-c1ccccc1)N1CCn2c(c(O)n(C3CC34CCCCC4)c2=O)C1` (stereo not given), the IC50 is more than 2500 nM.

Molecular target in another test: not listed separately
Briefly: Antagonist activity at smoothened expressed in mouse Shh Light2 cells co-expressing Gli-dependent reporter gene assessed as inhibition of Hh pathway.
Regarding `Cn1cc(-c2ncccc2NC(=O)N2CCn3c(c(O)n([C@H]4C[C@@H]4c4ccccc4)c3=O)C2)cn1`, the IC50 was 1200 nM.

On to `O=C(Nc1cccnc1-c1ccsc1)N1CCn2c(c(O)n([C@H]3C[C@@H]3c3ccccc3)c2=O)C1`, for which the half-inhibitory concentration (IC50) was 240 nM.

As to `CC(C)(C)C(=O)N1CCn2c(c(O)n([C@H]3C[C@@H]3c3ccccc3)c2=O)C1`, the IC50 came to 4500 nM.

For the compound `O=C(Nc1ccncc1-c1ccccc1)N1CCn2c(c(O)n([C@H]3C[C@@H]3c3ccccc3)c2=O)C1`, the IC50 stood at 89 nM.

For the compound `CC(C)c1ccccc1NC(=O)N1CCn2c(c(O)n([C@H]3C[C@@H]3c3ccccc3)c2=O)C1`, the IC50 was found to be 180 nM.

`COc1cccc(-c2ncccc2NC(=O)N2CCn3c(c(O)n([C@H]4C[C@@H]4c4ccccc4)c3=O)C2)c1`: the IC50 was 82 nM.

As to `O=C(Nc1ccc(F)c(Cl)c1Cl)N1CCn2c(c(O)n([C@H]3C[C@@H]3c3ccccc3)c2=O)C1`, the IC50 stood at 510 nM.

For the compound `O=C(Nc1ccccc1-c1ccccc1)N1CCn2c(c(O)n(-c3cccc(-c4ccccc4)c3)c2=O)C1`, the half-inhibitory concentration (IC50) came to 2500 nM.

As to `Cc1c(Cl)cccc1NC(=O)N1CCn2c(c(O)n([C@H]3C[C@@H]3c3ccccc3)c2=O)C1`, the IC50 was 370 nM.

On to `O=C(Nc1cc(Cl)cc(Cl)c1)N1CCn2c(c(O)n([C@H]3C[C@@H]3c3ccccc3)c2=O)C1`, for which the half-inhibitory concentration (IC50) was 780 nM.

For `O=C(Nc1cccc(Cl)c1Cl)N1CCn2c(c(O)n([C@H]3C[C@@H]3c3ccccc3)c2=O)C1`, the concentration for half-maximal inhibition (IC50) was 340 nM.

As for `O=C(Nc1c(Cl)cc(C(F)(F)F)cc1Cl)N1CCn2c(c(O)n([C@H]3C[C@@H]3c3ccccc3)c2=O)C1`, the IC50 came to 330 nM.

`CN(C(=O)N1CCn2c(c(O)n([C@H]3C[C@@H]3c3ccccc3)c2=O)C1)c1ccccc1-c1ccccc1`: the IC50 was 1600 nM.

For `CS(=O)(=O)c1cc(Cl)c(NC(=O)N2CCn3c(c(O)n([C@H]4C[C@@H]4c4ccccc4)c3=O)C2)c(Cl)c1`, the concentration for half-maximal inhibition (IC50) was 53 nM.

Consider `O=C(Nc1ccccc1-c1ccccc1)N1CCn2c(c(O)n(CCc3ccccc3)c2=O)C1`, for which the IC50 was 5000 nM.

`COC(=O)c1cccc(NC(=O)N2CCn3c(c(O)n([C@H]4C[C@@H]4c4ccccc4)c3=O)C2)c1Cl`: the concentration for half-maximal inhibition (IC50) is 2200 nM.

Turning to `O=C(Nc1ccccc1-c1ccccc1)N1CCn2c(c(O)n(C3Cc4ccccc4C3)c2=O)C1`, the half-inhibitory concentration (IC50) was determined as 320 nM.

`O=C(Nc1cccnc1-c1ccccc1)N1CCn2c(c(O)n([C@H]3C[C@@H]3c3ccccc3)c2=O)C1`: the IC50 is 28 nM.

For the compound `CCCCN(CCCC)C(=O)N1CCn2c(c(O)n([C@H]3C[C@@H]3c3ccccc3)c2=O)C1`, the half-inhibitory concentration (IC50) was found to be 1900 nM.

Turning to `Cc1cc(C#N)cc(Cl)c1NC(=O)N1CCn2c(c(O)n([C@H]3C[C@@H]3c3ccccc3)c2=O)C1`, the IC50 worked out at 150 nM.

With `O=C(Nc1cccnc1-c1cccc(Cl)c1)N1CCn2c(c(O)n([C@H]3C[C@@H]3c3ccccc3)c2=O)C1`, the IC50 worked out at 18 nM.

For `Cc1cccc(Cl)c1NC(=O)N1CCn2c(c(O)n([C@H]3C[C@@H]3c3ccccc3)c2=O)C1`, the IC50 was found to be 530 nM.

On to `O=C(Nc1ccccc1-c1ccccc1)c1ccc2c(c1)C(=O)N([C@H]1C[C@@H]1c1ccccc1)C2=O`, for which the half-maximal inhibitory concentration (IC50) is 4600 nM.

With `O=C(NC1CCCCC1)N1CCn2c(c(O)n([C@H]3C[C@@H]3c3ccccc3)c2=O)C1`, the IC50 amounted to 600 nM.

Regarding `O=C(Nc1ccccc1-c1ccccc1)N1CCN2C(=O)N([C@H]3C[C@@H]3c3ccccc3)CC2C1` (stereo not given in full), the IC50 was found to be 3000 nM.

On to `CCCCCCNC(=O)N1CCn2c(c(O)n([C@H]3C[C@@H]3c3ccccc3)c2=O)C1`, for which the IC50 came out at 1500 nM.

Consider `O=C(Nc1ccc2c(c1)OCO2)N1CCn2c(c(O)n([C@H]3C[C@@H]3c3ccccc3)c2=O)C1`, for which the IC50 came out at 2700 nM.

For the compound `O=C(Nc1ccnn1-c1ccccc1)N1CCn2c(c(O)n([C@H]3C[C@@H]3c3ccccc3)c2=O)C1`, the half-inhibitory concentration (IC50) was found to be 16 nM.

Another test deals with T1, Smoothened homolog. Kind of test: Displacement of [125I]-PA cyclopamine from smoothened expressed in african green monkey COS-1 cells after 10 mins by autoradiography.
Consider `O=C(Nc1ccccc1-c1ccccc1)N1CCn2c(c(O)n(Cc3ccccc3)c2=O)C1`, for which the IC50 was more than 2500 nM.

With `O=C(NCc1ccco1)N1CCn2c(c(O)n([C@H]3C[C@@H]3c3ccccc3)c2=O)C1`, the half-maximal inhibitory concentration (IC50) is more than 2500 nM.

For the compound `CCCCn1c(O)c2n(c1=O)CCN(C(=O)Nc1ccccc1-c1ccccc1)C2`, the half-inhibitory concentration (IC50) is more than 2500 nM.

The compound `O=C(C1CCCCC1)N1CCn2c(c(O)n([C@H]3C[C@@H]3c3ccccc3)c2=O)C1` gave an IC50 of more than 1500 nM.

For `O=C(Nc1ccccc1-c1ccccc1)N1CCn2c(c(O)n(-c3cccc(-c4ccccc4)c3)c2=O)C1`, the IC50 is more than 2500 nM.

In turn, `O=C(Nc1ccccc1-c1ccccc1)N1CCn2c(c(O)n(C3CC34CCCCC4)c2=O)C1` (stereo not given) returned an IC50 of more than 2500 nM.

`CN(C)C(=O)N1CCn2c(c(O)n([C@H]3C[C@@H]3c3ccccc3)c2=O)C1` yielded an IC50 of more than 2500 nM.

Compound `CC(=O)N1CCn2c(c(O)n([C@H]3C[C@@H]3c3ccccc3)c2=O)C1` returned an IC50 of more than 1500 nM.

Compound `O=C(Nc1ccccc1-c1ccccc1)N1CCn2c(c(O)n(-c3cccc4ccccc34)c2=O)C1` registered an IC50 of more than 2500 nM.

In the case of `COC(=O)N1CCn2c(c(O)n([C@H]3C[C@@H]3c3ccccc3)c2=O)C1`, the IC50 is more than 1500 nM.

In turn, `O=c1n2c(c(O)n1[C@H]1C[C@@H]1c1ccccc1)CN(CC1CCCCC1)CC2` registered a half-inhibitory concentration (IC50) of more than 2500 nM.
